The text below walks through data of patent US20260234568A1, “TUMOR STORAGE AND CELL CULTURE COMPOSITIONS” (Iovance Biotherapeutics, Inc., priority 2021, published 2026).

Where two headings read alike, the source gives them in different places.

Series [1] has as its system Pre-REP TIL. Format: cell-based. As for the experimental part:
Phase 1: Small Scale Evaluation of Various Antibiotics in shipping medium and CM1 were conducted in 2 separate rounds using 2 different tumors as shown in Tables 53 and 54. The cultures were terminated after the Pre-REP. All the overnight incubations in HTS included 2.5 μg/mL Amphotericin B (or 10 μg/mL for the “high AmpB concentration” condition) and 50 μg/mL gentamicin
All the test and control conditions were tested in quadruplicates. Total Viable Cells and % Viability was recorded on Day 11 of Pre-REP.

Series [2] relates to S. aureus. As to the kind of experiment: Antibiotics on growth of bacteria in culture media (HTS then CM1). Format: cell-based. As to conditions: S. aureus (strain 1), HTS 24 hours at 2-8° C., then CM1 11 days, Gentamicin 50 μg/mL, Vancomycin 100 μg/mL. As for the experimental part:
In these experiments, the following antibiotics were added to Gram+bacteria S. aureus and E. faecalis in hypothermosol (HTS) at three different concentrations of bacteria: • a. Gentamicin (50 μg/mL) • b. […] Vancomycin (100 μg/mL)

Series [3] deals with E. faecalis. Described as above. Format: cell-based. As to conditions: HTS 24 hours at 2-8° C., then CM1 11 days, Gentamicin 50 μg/mL, Vancomycin 100 μg/mL.
Method: Additional experiments were performed to test the ability of vancomycin to prevent growth of vancomycin sensitive bacteria in culture medium. In these experiments, the following antibiotics were added to Gram+bacteria S. aureus and E. faecalis in hypothermosol (HTS) at three different concentrations of bacteria: • a. Gentamicin (50 μg/mL) • b. Gentamicin (50 μg/mL)+Vancomycin (100 μg/mL) • c. Vancomycin (100 μg/mL)
The mixtures were incubated at 24 hours at 2-8° C. and then 1 mL of each of the samples were added to 20 mL of CM1 medium in the same concentrations of antibiotics above. The mixtures were incubated for 11 days and bacterial growth was visually assessed.
Series [4] deals with E. faecalis. As to the kind of experiment: Antibiotics on bacterial growth of inoculated tissue fragments (HTS, wash, CM1). Format: cell-based. As to conditions: for bacterial growth, visually assessed: inoculated tissue fragments, washed 3×, 11 days. As to the method: Gentamicin (50 μg/mL) • b. […] Vancomycin (100 μg/mL)
Series [5] deals with S. aureus. As to conditions: for bacterial growth, visually assessed: S. aureus (strain 1), inoculated tissue fragments, washed 3×, 11 days.
Method: Additional experiments were performed to test the ability of vancomycin to prevent growth of vancomycin sensitive bacteria in culture medium. In these experiments, tissue fragments were inoculated in HTS with three different loads of S. aureus and E. faecalis bacteria and the following antibiotics: • a.
The 6 HTS inoculates (iHTS) shown were incubated at 24 hours at 2-8° C. and washed 3× with tumor wash buffer with the same concentrations of antibiotics above. The tumor samples were incubated for 11 days and bacterial growth was visually assessed.
The test system of series [6] is Pre-REP TIL. As to the kind of experiment: Phase II full scale Pre-REP: extended phenotype of Day 11 samples. As to conditions: 100 μg/mL in tumor shipping medium and CM1 Pre-REP media.
Method: The received tumor was separated into 2 equal portions and stored overnight similarly to the overnight incubation in phase I of testing. The chosen antibiotic condition was tested against Gentamicin Sulfate control at full scale Pre-REP according to the Day 0 Gen 2 Batch Record. TVC, viability, identity, function, and extended phenotyping data were obtained.
Both antibiotics were tested in shipping medium and CM1 at a concentration of 100 μg/mL.

For `C[C@@H]1[C@H](O)[C@@H](C)/C=C/C=C/C=C/C=C/C=C/C=C/C=C/[C@H](O[C@@H]2O[C@H](C)[C@@H](O)[C@H](N)[C@@H]2O)C[C@@H]2O[C@](O)(C[C@@H](O)C[C@@H](O)[C@H](O)CC[C@@H](O)C[C@@H](O)CC(=O)O[C@H]1C)C[C@H](O)[C@H]2C(=O)O` [amphotericin B], the “cytotoxicity / impact on Pre-REP TIL cell growth (in words)” value with Pre-REP TIL [1] (Day 11 of Pre-REP, quadruplicates, with 50 μg/mL gentamicin) is recorded as “did not appear cytotoxic”.
Regarding `CN[C@H](CC(C)C)C(=O)N[C@H]1C(=O)N[C@@H](CC(N)=O)C(=O)N[C@H]2C(=O)N[C@H]3C(=O)N[C@H](C(=O)N[C@H](C(=O)O)c4cc(O)cc(O)c4-c4cc3ccc4O)[C@H](O)c3ccc(c(Cl)c3)Oc3cc2cc(c3O[C@@H]2O[C@H](CO)[C@@H](O)[C@H](O)[C@H]2O[C@H]2C[C@](C)(N)[C@H](O)[C@H](C)O2)Oc2ccc(cc2Cl)[C@H]1O` [vancomycin], in the series with Pre-REP TIL [1], the “cytotoxicity / impact on Pre-REP TIL cell growth (in words)” value is listed as “least cytotoxicity”. Besides, the “bacterial growth, visually assessed” value is given as “inhibited grown” in the series with S. aureus [2]; “No Growth” with S. aureus [2] (listed as Vanco); “inhibited grown” in the series with E. faecalis [3]; “No Growth” in the series on E. faecalis [3] (listed as Vanco); “No Growth” in the series on E. faecalis [4] (Bacterial Load High); “No Growth” in the series with E. faecalis [4] (Bacterial Load Low). The “bacterial growth, visually assessed” value with E. faecalis [4] (Bacterial Load Med), in the series on S. aureus [5] (Bacterial Load High), in the series on S. aureus [5] (Bacterial Load Low) and in the series on S. aureus [5] (Bacterial Load Med) was “No Growth” each time. The “bacterial growth (summary in words)” value is given as “no observed growth” in the series with E. faecalis [4] (all the bacterial loads tested) and “no observed growth” in the series on S. aureus [5] (S. aureus, all the bacterial loads tested). Further, the “effect on the Pre-REP cell product (TVC, Viability, Identity, Function, Extended Phenotyping; in words)” value with Pre-REP TIL [6] was “no deleterious effect”.
